According to patent US9980943B2, “Methods of treating muscular dystrophy” (BOARD OF REGENTS OF THE NEVADA SYSTEM OF HIGHER EDUCATION, …, priority 2013, dated 2018):

Assays:
Format in all cases: cell-based, mouse
[1] = system: α7 integrin (LacZ reporter in α7+/LacZ myotubes); experiment: Myotube α7 integrin FDG assay (Burkin assay in myotubes, 96-well); conditions: for Burkin Assay in Myotubes, value relative to DMSO: SU9516 analogs, 96-well, N=3-6
[2] = system: β-galactosidase in CMV-LacZ C2C12 myotubes; experiment: CMV-LacZ secondary screen in C2C12 myotubes (β-Gal stabilizing assay); conditions: for CMV-LACZ in Myotubes, value relative to DMSO: SU9516 analogs, C2C12 CMV-LacZ, N=2; for CMV-LACZ in Myotubes, signal relative to DMSO: C2C12 CMV-LacZ myotubes, fold relative to DMSO
Method in brief: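 Dose-response runs at 0.5–40 μM (0.5, 1, 5, 10, 20, 40 μM; N=2 per point) used a clonal C2C12 line carrying CMV-LacZ. Cells were assayed as myoblasts or as differentiated myotubes, and β-galactosidase levels were read with the FDG fluorogenic substrate.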

[3] = system: β-galactosidase in CMV-LacZ C2C12 myoblasts; experiment: CMV-LacZ secondary screen in C2C12 myoblasts (β-Gal stabilizing assay); conditions: for CMV-LACZ in Myoblasts, value relative to DMSO: SU9516 analogs, C2C12 CMV-LacZ, N=2; for CMV-LACZ in Myoblasts (β-galactosidase activity relative to DMSO): CMV-LacZ C2C12 myoblasts
Method in brief: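 First, C2C12 myoblasts were transfected with a linearized CMV-LACZ vector and clonal lines selected by FDG β-gal assay. Then cells were exposed to compounds at 0.5, 1, 5, 10, 20 and 40 μM in 96-well format, two replicates each, and β-gal measured.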

[4] = system: α7 integrin (LacZ reporter in α7βgal+/− myoblasts); experiment: Myoblast α7+/LacZ integrin FDG assay (Burkin assay in myoblasts, 96-well); conditions: 96-well; for Burkin Assay in Myoblasts, value relative to DMSO: SU9516 analogs, N=3-6; for Burkin Assay in Myoblasts, signal relative to DMSO: α7+/LacZ myoblasts

## Cc1ccc2c(c1)/C(=C/c1ccccc1C)C(=O)N2 [MLS001202402-01]
[1]; 0.5 uM
  Burkin Assay in Myotubes, value relative to DMSO: 0.9628
[1]; 1 uM
  Burkin Assay in Myotubes, value relative to DMSO: 0.8962
[1]; 5 uM
  Burkin Assay in Myotubes, value relative to DMSO: 0.9629
[1]; 10 uM
  Burkin Assay in Myotubes, value relative to DMSO: 1.0295
[1]; 20 uM
  Burkin Assay in Myotubes, value relative to DMSO: 0.5907
[1]; 40 uM
  Burkin Assay in Myotubes, value relative to DMSO: 0.3717
[2]; 0.5 uM
  CMV-LACZ in Myotubes, value relative to DMSO: 0.9200
[2]; 1 uM
  CMV-LACZ in Myotubes, value relative to DMSO: 0.8695
[2]; 5 uM
  CMV-LACZ in Myotubes, value relative to DMSO: 0.9237
[2]; 10 uM
  CMV-LACZ in Myotubes, value relative to DMSO: 0.8015
[2]; 20 uM
  CMV-LACZ in Myotubes, value relative to DMSO: 0.8847
[2]; 40 uM
  CMV-LACZ in Myotubes, value relative to DMSO: 0.8129
[3]; 0.5 uM
  CMV-LACZ in Myoblasts, value relative to DMSO: 1.0546
[3]; 1 uM
  CMV-LACZ in Myoblasts, value relative to DMSO: 1.0106
[3]; 5 uM
  CMV-LACZ in Myoblasts, value relative to DMSO: 0.8771
[3]; 10 uM
  CMV-LACZ in Myoblasts, value relative to DMSO: 0.7598
[3]; 20 uM
  CMV-LACZ in Myoblasts, value relative to DMSO: 0.7204
[3]; 40 uM
  CMV-LACZ in Myoblasts, value relative to DMSO: 0.4819
[4]; 0.5 uM
  Burkin Assay in Myoblasts, value relative to DMSO: 1.051
[4]; 1 uM
  Burkin Assay in Myoblasts, value relative to DMSO: 0.9034
[4]; 5 uM
  Burkin Assay in Myoblasts, value relative to DMSO: 0.9255
[4]; 10 uM
  Burkin Assay in Myoblasts, value relative to DMSO: 1.08
[4]; 20 uM
  Burkin Assay in Myoblasts, value relative to DMSO: 0.6481
[4]; 40 uM
  Burkin Assay in Myoblasts, value relative to DMSO: 0.325

## Cc1ccccc1S(=O)(=O)N1C[C@H]2CON(C)[C@H]2C[C@H]1c1cccc(-c2ccccc2)c1 [MLS002694363-01]
[1]; 0.5 uM
  Burkin Assay in Myotubes, α7 integrin LacZ reporter signal relative to DMSO: 0.9909
[1]; 1 uM
  Burkin Assay in Myotubes, α7 integrin LacZ reporter signal relative to DMSO: 1.01
[1]; 5 uM
  Burkin Assay in Myotubes, α7 integrin LacZ reporter signal relative to DMSO: 0.9178
[1]; 10 uM
  Burkin Assay in Myotubes, α7 integrin LacZ reporter signal relative to DMSO: 0.8787
[1]; 20 uM
  Burkin Assay in Myotubes, α7 integrin LacZ reporter signal relative to DMSO: 0.6694
[1]; 40 uM
  Burkin Assay in Myotubes, α7 integrin LacZ reporter signal relative to DMSO: 0.4108
[2]; 0.5 uM
  CMV-LACZ in Myotubes, signal relative to DMSO: 1.0695
[2]; 1 uM
  CMV-LACZ in Myotubes, signal relative to DMSO: 1.1800
[2]; 5 uM
  CMV-LACZ in Myotubes, signal relative to DMSO: 1.1420
[2]; 10 uM
  CMV-LACZ in Myotubes, signal relative to DMSO: 0.9775
[2]; 20 uM
  CMV-LACZ in Myotubes, signal relative to DMSO: 0.9870
[2]; 40 uM
  CMV-LACZ in Myotubes, signal relative to DMSO: 0.7460
[3]; 0.5 uM
  CMV-LACZ in Myoblasts (β-galactosidase activity relative to DMSO): 1.1110
[3]; 1 uM
  CMV-LACZ in Myoblasts (β-galactosidase activity relative to DMSO): 1.2840
[3]; 5 uM
  CMV-LACZ in Myoblasts (β-galactosidase activity relative to DMSO): 0.7616
[3]; 10 uM
  CMV-LACZ in Myoblasts (β-galactosidase activity relative to DMSO): 1.0392
[3]; 20 uM
  CMV-LACZ in Myoblasts (β-galactosidase activity relative to DMSO): 1.0123
[3]; 40 uM
  CMV-LACZ in Myoblasts (β-galactosidase activity relative to DMSO): 0.5698
[4]; 0.5 uM
  Burkin Assay in Myoblasts, signal relative to DMSO: 1.062
[4]; 1 uM
  Burkin Assay in Myoblasts, signal relative to DMSO: 1.061
[4]; 5 uM
  Burkin Assay in Myoblasts, signal relative to DMSO: 1.045
[4]; 10 uM
  Burkin Assay in Myoblasts, signal relative to DMSO: 1.09
[4]; 20 uM
  Burkin Assay in Myoblasts, signal relative to DMSO: 0.7581
[4]; 40 uM
  Burkin Assay in Myoblasts, signal relative to DMSO: 0.7066

## c1ccc(-c2nn[nH]n2)nc1 [MLS000767397-01]
[1]; 0.5 uM
  Burkin Assay in Myotubes, α7 integrin LacZ reporter signal relative to DMSO: 0.9294
[1]; 1 uM
  Burkin Assay in Myotubes, α7 integrin LacZ reporter signal relative to DMSO: 0.9481
[1]; 5 uM
  Burkin Assay in Myotubes, α7 integrin LacZ reporter signal relative to DMSO: 1.004
[1]; 10 uM
  Burkin Assay in Myotubes, α7 integrin LacZ reporter signal relative to DMSO: 1.0608
[1]; 20 uM
  Burkin Assay in Myotubes, α7 integrin LacZ reporter signal relative to DMSO: 0.9993
[1]; 40 uM
  Burkin Assay in Myotubes, α7 integrin LacZ reporter signal relative to DMSO: 1.014
[2]; 0.5 uM
  CMV-LACZ in Myotubes, signal relative to DMSO: 0.8737
[2]; 1 uM
  CMV-LACZ in Myotubes, signal relative to DMSO: 1.0368
[2]; 5 uM
  CMV-LACZ in Myotubes, signal relative to DMSO: 0.9425
[2]; 10 uM
  CMV-LACZ in Myotubes, signal relative to DMSO: 0.9519
[2]; 20 uM
  CMV-LACZ in Myotubes, signal relative to DMSO: 1.0144
[2]; 40 uM
  CMV-LACZ in Myotubes, signal relative to DMSO: 1.0067
[3]; 0.5 uM
  CMV-LACZ in Myoblasts (β-galactosidase activity relative to DMSO): 1.2748
[3]; 1 uM
  CMV-LACZ in Myoblasts (β-galactosidase activity relative to DMSO): 1.0646
[3]; 5 uM
  CMV-LACZ in Myoblasts (β-galactosidase activity relative to DMSO): 0.9910
[3]; 10 uM
  CMV-LACZ in Myoblasts (β-galactosidase activity relative to DMSO): 0.9687
[3]; 20 uM
  CMV-LACZ in Myoblasts (β-galactosidase activity relative to DMSO): 0.8485
[3]; 40 uM
  CMV-LACZ in Myoblasts (β-galactosidase activity relative to DMSO): 1.1433
[4]; 0.5 uM
  Burkin Assay in Myoblasts, signal relative to DMSO: 0.8862
[4]; 1 uM
  Burkin Assay in Myoblasts, signal relative to DMSO: 0.839
[4]; 5 uM
  Burkin Assay in Myoblasts, signal relative to DMSO: 1.476
[4]; 10 uM
  Burkin Assay in Myoblasts, signal relative to DMSO: 0.9334
[4]; 20 uM
  Burkin Assay in Myoblasts, signal relative to DMSO: 1.613
[4]; 40 uM
  Burkin Assay in Myoblasts, signal relative to DMSO: 0.9754

## Cc1cccc(C)c1NCC(=O)N1CCN(Cc2ccccc2)CC1.Cl [MLS001176153-01]
[1]; 0.5 uM
  Burkin Assay in Myotubes, α7 integrin LacZ reporter signal relative to DMSO: 1.007
[1]; 1 uM
  Burkin Assay in Myotubes, α7 integrin LacZ reporter signal relative to DMSO: 1.027
[1]; 5 uM
  Burkin Assay in Myotubes, α7 integrin LacZ reporter signal relative to DMSO: 0.9538
[1]; 10 uM
  Burkin Assay in Myotubes, α7 integrin LacZ reporter signal relative to DMSO: 1.106
[1]; 20 uM
  Burkin Assay in Myotubes, α7 integrin LacZ reporter signal relative to DMSO: 0.9238
[1]; 40 uM
  Burkin Assay in Myotubes, α7 integrin LacZ reporter signal relative to DMSO: 0.9818
[2]; 0.5 uM
  CMV-LACZ in Myotubes, signal relative to DMSO: 0.8316
[2]; 1 uM
  CMV-LACZ in Myotubes, signal relative to DMSO: 0.9832
[2]; 5 uM
  CMV-LACZ in Myotubes, signal relative to DMSO: 0.7944
[2]; 10 uM
  CMV-LACZ in Myotubes, signal relative to DMSO: 0.9388
[2]; 20 uM
  CMV-LACZ in Myotubes, signal relative to DMSO: 1.0256
[2]; 40 uM
  CMV-LACZ in Myotubes, signal relative to DMSO: 1.0878
[3]; 0.5 uM
  CMV-LACZ in Myoblasts (β-galactosidase activity relative to DMSO): 1.2729
[3]; 1 uM
  CMV-LACZ in Myoblasts (β-galactosidase activity relative to DMSO): 1.4588
[3]; 5 uM
  CMV-LACZ in Myoblasts (β-galactosidase activity relative to DMSO): 0.8976
[3]; 10 uM
  CMV-LACZ in Myoblasts (β-galactosidase activity relative to DMSO): 0.9140
[3]; 20 uM
  CMV-LACZ in Myoblasts (β-galactosidase activity relative to DMSO): 0.9322
[3]; 40 uM
  CMV-LACZ in Myoblasts (β-galactosidase activity relative to DMSO): 1.0763
[4]; 0.5 uM
  Burkin Assay in Myoblasts, signal relative to DMSO: 1.06
[4]; 1 uM
  Burkin Assay in Myoblasts, signal relative to DMSO: 1.045
[4]; 5 uM
  Burkin Assay in Myoblasts, signal relative to DMSO: 0.9185
[4]; 10 uM
  Burkin Assay in Myoblasts, signal relative to DMSO: 0.8767
[4]; 20 uM
  Burkin Assay in Myoblasts, signal relative to DMSO: 1.145
[4]; 40 uM
  Burkin Assay in Myoblasts, signal relative to DMSO: 1.12

## C=CCOc1ccc(C(=O)/C=C2/C(=O)Nc3ccccc32)cc1 [MLS001214264-01]
[1]; 0.5 uM
  Burkin Assay in Myotubes, value relative to DMSO: 0.9576
[1]; 1 uM
  Burkin Assay in Myotubes, value relative to DMSO: 0.8975
[1]; 5 uM
  Burkin Assay in Myotubes, value relative to DMSO: 0.9073
[1]; 10 uM
  Burkin Assay in Myotubes, value relative to DMSO: 1.058
[1]; 20 uM
  Burkin Assay in Myotubes, value relative to DMSO: 0.7165
[1]; 40 uM
  Burkin Assay in Myotubes, value relative to DMSO: 0.7173
[2]; 0.5 uM
  CMV-LACZ in Myotubes, value relative to DMSO: 1.1210
[2]; 1 uM
  CMV-LACZ in Myotubes, value relative to DMSO: 1.1905
[2]; 5 uM
  CMV-LACZ in Myotubes, value relative to DMSO: 0.9411
[2]; 10 uM
  CMV-LACZ in Myotubes, value relative to DMSO: 1.1534
[2]; 20 uM
  CMV-LACZ in Myotubes, value relative to DMSO: 1.2424
[2]; 40 uM
  CMV-LACZ in Myotubes, value relative to DMSO: 1.4482
[3]; 0.5 uM
  CMV-LACZ in Myoblasts, value relative to DMSO: 1.0657
[3]; 1 uM
  CMV-LACZ in Myoblasts, value relative to DMSO: 1.1383
[3]; 5 uM
  CMV-LACZ in Myoblasts, value relative to DMSO: 1.3058
[3]; 10 uM
  CMV-LACZ in Myoblasts, value relative to DMSO: 0.9233
[3]; 20 uM
  CMV-LACZ in Myoblasts, value relative to DMSO: 0.3870
[3]; 40 uM
  CMV-LACZ in Myoblasts, value relative to DMSO: 0.4856
[4]; 0.5 uM
  Burkin Assay in Myoblasts, value relative to DMSO: 0.8908
[4]; 1 uM
  Burkin Assay in Myoblasts, value relative to DMSO: 0.8464
[4]; 5 uM
  Burkin Assay in Myoblasts, value relative to DMSO: 0.743
[4]; 10 uM
  Burkin Assay in Myoblasts, value relative to DMSO: 0.7009
[4]; 20 uM
  Burkin Assay in Myoblasts, value relative to DMSO: 0.7879
[4]; 40 uM
  Burkin Assay in Myoblasts, value relative to DMSO: 0.2394
